# Reference: publication PMC11645656, “MRGPRX4 mediates phospho-drug associated pruritus in a humanized mouse model” (Science translational medicine, 2024)
# Several values for one entry are separate records, joined by “and”; a condition that tells them apart may be missing. Identical values can stand only once.
# Legend:
# [1] = biological target: T1, MRGPRX4 (S83) (Homo sapiens, UniProt Q96LA9, L83S); test: EC50 determination, intracellular calcium mobilization in MRGPRX4 stably expressed HEK293 cells (FLIPR Calcium 5, Flexstation-3); assay type: cell-based; conditions: for Fig. 1D dose-response, calcium response at Concentration (M): individual replicate values
# T1 construct: expressed in transfected cells
# How it was run: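 HEK293 cells stably expressing receptor (parental HEK293 alongside) loaded with Calcium 5 dye in HBSS/20 mM HEPES, pH 7.4, 1 h at 37 °C, then compounds added. Response = peak minus pre-drug baseline, triplicates averaged; EC50 from 4PL fit.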
# [2] = system: NP2-WT mice; test: Itch behavioral study (scratching bouts after subcutaneous nape injection) in littermate control NP2-WT mice; assay type: in vivo; conditions: 30 min after injection of 50 μl 10 mM into the nape, each cell one mouse
# [3] = ref ClinicalTrials.gov Identifier: NCT00327392; cited from earlier work
# [4] = biological target: MRGPRX4 WT (S83) (Homo sapiens, UniProt Q96LA9, L83S); test: PRESTO-Tango β-arrestin recruitment assay, HTLA cells stably expressing WT (S83) MRGPRX4; assay type: cell-based; parameters: expressed in transfected cells; conditions: for PRESTO-Tango response (fig. S1), single replicate: HTLA::MRGPRX4; for fig. S7 response (raw signal), concentration-response: WT, single replicate
# MRGPRX4 WT (S83), sequence (Q96LA9 whole entry L83S): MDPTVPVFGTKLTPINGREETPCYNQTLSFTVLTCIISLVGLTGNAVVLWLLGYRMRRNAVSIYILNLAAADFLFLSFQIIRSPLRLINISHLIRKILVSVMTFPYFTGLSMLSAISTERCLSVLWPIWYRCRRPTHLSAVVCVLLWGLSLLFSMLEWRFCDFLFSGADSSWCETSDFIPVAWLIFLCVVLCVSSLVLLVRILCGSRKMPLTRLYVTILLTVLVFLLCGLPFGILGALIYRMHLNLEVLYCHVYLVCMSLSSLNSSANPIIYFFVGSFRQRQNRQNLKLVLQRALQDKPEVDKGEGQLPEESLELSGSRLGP
# T1 sequence (Q96LA9 whole entry L83S): as above
smiles,measurement,setting,value
CC(C)c1cccc(C(C)C)c1OCOP(=O)(O)O [Fospropofol],EC50,[1],3.78 nM
same,"Fig. 1D dose-response, calcium response at Concentration (M)",[1]; 390.6 pM,1.887 and 7.675 and 17.3467 and 28.1293 and 25.4823 and 35.7983 and -3.6673 and 11.7957 and 11.3767
same,"Fig. 1D dose-response, calcium response at Concentration (M)",[1]; 781.2 pM,26.5827 and 9.949 and 22.6817 and 47.5243 and 43.9493 and 46.7693 and 30.8217 and 49.6317 and 45.8127
same,"Fig. 1D dose-response, calcium response at Concentration (M)",[1]; 1.5625e-9 M,74.3117 and 80.9857 and 81.1437 and 128.989 and 99.4103 and 141.332 and 62.3957 and 66.3277 and 70.4507
same,"Fig. 1D dose-response, calcium response at Concentration (M)",[1]; 3.125e-9 M,97.9827 and 97.6007 and 113.013 and 161.554 and 132.577 and 128.455 and 112.923 and 102.472 and 92.5087
same,"Fig. 1D dose-response, calcium response at Concentration (M)",[1]; 6.25e-9 M,129.465 and 134.099 and 141.914 and 173.201 and 168.912 and 206.791 and 144.704 and 134.885 and 117.377
same,"Fig. 1D dose-response, calcium response at Concentration (M)",[1]; 1.25e-8 M,164.422 and 179.515 and 157.084 and 234.098 and 206.128 and 222.155 and 172.571 and 101.371 and 130.276
same,"Fig. 1D dose-response, calcium response at Concentration (M)",[1]; 2.5e-8 M,193.287 and 213.245 and 222.211 and 313.329 and 290.374 and 297.501 and 184.525 and 188.459 and 188.843
same,"Fig. 1D dose-response, calcium response at Concentration (M)",[1]; 5e-8 M,209.793 and 233.98 and 204.052 and 317.065 and 340.21 and 331.701 and 193.877 and 181.409 and 188.341
same,"Fig. 1D dose-response, calcium response at Concentration (M)",[1]; 1e-7 M,231.301 and 222.41 and 222.053 and 368.09 and 352.14 and 353.772 and 173.973 and 182.603 and 208.392
same,"Fig. 1D dose-response, calcium response at Concentration (M)",[1]; 2e-7 M,241.094 and 221.904 and 183.593 and 346.939 and 358.59 and 369.748 and 151.356 and 187.22 and 148.627
same,MRGPRX4 agonist activity / calcium signaling,[1]; MRGPRX4-expressing HEK293 cells,potent agonist of MRGPRX4
same,Hill coefficient,"[1]; dose-response curve fitting, table S1",0.800
same,Scratching bouts of individual animals,[2],2 and 38 and 3 and 10 and 15 and 17 and 76 and 40 and 18 and 43
same,Patients who reported paresthesia,[3],53.6%
same,Patients who reported pruritus,[3],26.0%
same,"PRESTO-Tango response (fig. S1), single replicate",[4]; concentration 1.95e-9 M,0.05347 and 0.06522 and 0.05931 and 0.2207 and 0.1773 and 0.1674 and 0.1338 and 0.1758 and 0.0967
same,"PRESTO-Tango response (fig. S1), single replicate",[4]; concentration 3.91e-9 M,0.1053 and 0.08982 and 0.09599 and 0.3062 and 0.2141 and 0.1584 and 0.1973 and 0.1505 and 0.1812
same,"PRESTO-Tango response (fig. S1), single replicate",[4]; concentration 7.81e-9 M,0.09268 and 0.116 and 0.1017 and 0.3688 and 0.253 and 0.2802 and 0.1468 and 0.2156 and 0.1585
same,"PRESTO-Tango response (fig. S1), single replicate",[4]; concentration 1.56e-8 M,0.2132 and 0.2887 and 0.213 and 0.6375 and 0.7915 and 0.6641 and 0.3649 and 0.3666 and 0.1947
same,"PRESTO-Tango response (fig. S1), single replicate",[4]; concentration 3.13e-8 M,0.293 and 0.3131 and 0.2408 and 1.844 and 1.563 and 1.804 and 0.7421 and 0.6696 and 0.4151
same,"PRESTO-Tango response (fig. S1), single replicate",[4]; concentration 6.25e-8 M,0.5602 and 0.5719 and 0.4853 and 3.825 and 3.698 and 3.023 and 1.231 and 1.143 and 1.136
same,"PRESTO-Tango response (fig. S1), single replicate",[4]; concentration 1.25e-7 M,0.9649 and 0.9632 and 0.8205 and 5.958 and 5.765 and 4.1962 and 2.249 and 2.15 and 1.832
same,"PRESTO-Tango response (fig. S1), single replicate",[4]; concentration 2.5e-7 M,1.521 and 1.3 and 1.661 and 7.755 and 5.82 and 6.8361 and 3.176 and 3.046 and 2.687
same,"PRESTO-Tango response (fig. S1), single replicate",[4]; concentration 5e-7 M,1.9 and 1.632 and 1.827 and 8.423 and 7.014 and 7.51 and 3.752 and 3.569 and 3.3596
same,"PRESTO-Tango response (fig. S1), single replicate",[4]; concentration 1e-6 M,2.509 and 2.322 and 1.947 and 8.611 and 7.367 and 6.973 and 3.852 and 4.064 and 3.742
same,"PRESTO-Tango response (fig. S1), single replicate",[4]; concentration 2e-6 M,2.446 and 2.467 and 2.134 and 8.437 and 7.773 and 6.136 and 3.188 and 3.088 and 4.194
same,"fig. S7 response (raw signal), concentration-response",[4]; 1.95e-9 M,16738 and 13375 and 17578.5 and 9669.59 and 5346.95 and 6521.98 and 5931.28 and 22070.2 and 17734.5
same,"fig. S7 response (raw signal), concentration-response",[4]; 3.91e-9 M,15842.1 and 19726.2 and 15050.8 and 18116.6 and 10530.6 and 8981.76 and 9599.26 and 30619.8 and 21413.5
same,"fig. S7 response (raw signal), concentration-response",[4]; 7.81e-9 M,28015.3 and 14682.6 and 21560.1 and 15853.2 and 9267.54 and 11599.7 and 10170.8 and 36884.4 and 25297.6
same,"fig. S7 response (raw signal), concentration-response",[4]; 1.56e-8 M,66409.6 and 36485.8 and 36662.8 and 19473.7 and 21324 and 28869.2 and 21303.6 and 63745.9 and 79152.7
same,"fig. S7 response (raw signal), concentration-response",[4]; 3.13e-8 M,180426 and 74208.2 and 66960.2 and 41510.5 and 29299.2 and 31309.9 and 24081.1 and 184359 and 156258
same,"fig. S7 response (raw signal), concentration-response",[4]; 6.25e-8 M,302326 and 123092 and 114256 and 113554 and 56022.5 and 57189.8 and 48533.4 and 382536 and 369774
same,"fig. S7 response (raw signal), concentration-response",[4]; 1.25e-7 M,419620 and 224898 and 215037 and 183215 and 96490.1 and 96321.7 and 82049.1 and 595774 and 576456
same,"fig. S7 response (raw signal), concentration-response",[4]; 2.5e-7 M,683610 and 317574 and 304633 and 268745 and 152100 and 129974 and 166066 and 775519 and 581976
same,"fig. S7 response (raw signal), concentration-response",[4]; 5e-7 M,751045 and 375202 and 356942 and 335960 and 190041 and 163176 and 182733 and 842325 and 701403
same,"fig. S7 response (raw signal), concentration-response",[4]; 1e-6 M,697307 and 385223 and 406436 and 374152 and 250882 and 232214 and 194658 and 861126 and 736707
same,"fig. S7 response (raw signal), concentration-response",[4]; 2e-6 M,613596 and 318811 and 308756 and 419448 and 244609 and 246673 and 213444 and 843724 and 777268
